From patent US8685958B2, “Therapeutic agents” (AstraZeneca AB, priority 2011, dated 2014)

biological target: Melanin Concentrating Hormone Receptor 1 (MCHR1) (Homo sapiens (Human), UniProt Q99705); assay: MCHR1 receptor activation assay (GTPγ35S); assay type: biochemical; conditions: not given
Sequence (Q99705 whole entry): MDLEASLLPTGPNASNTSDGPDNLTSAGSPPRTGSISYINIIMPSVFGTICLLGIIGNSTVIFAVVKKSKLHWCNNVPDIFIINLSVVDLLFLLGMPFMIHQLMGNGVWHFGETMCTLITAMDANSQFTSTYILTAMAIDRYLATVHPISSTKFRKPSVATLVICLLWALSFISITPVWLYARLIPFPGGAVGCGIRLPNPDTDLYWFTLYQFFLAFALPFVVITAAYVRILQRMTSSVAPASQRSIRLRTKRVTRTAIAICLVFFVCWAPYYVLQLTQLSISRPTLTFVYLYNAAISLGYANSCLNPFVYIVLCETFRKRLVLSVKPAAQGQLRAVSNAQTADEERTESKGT

SMILES | IC50 [nM]
COc1ccc(-c2nnc(C(=O)N3CC(Oc4ccc(CN5CC6(CCOC6)C5)cc4)C3)o2)cc1 [Example 5, (3-(4-(6-oxa-2-azaspiro[3.4]octan-2-ylmethyl)phenoxy)azetidin-1-yl)(5-(4-methoxyphenyl)-1,3,4-oxadiazol-2-yl)methanone] | 19
Cc1cc(OC2CN(C(=O)c3nnc(-c4ccccc4)o3)C2)ccc1CN1CC2(CCOC2)C1 [Example 9, (3-(4-(6-oxa-2-azaspiro[3.4]octan-2-ylmethyl)-3-methylphenoxy)azetidin-1-yl)(5-phenyl-1,3,4-oxadiazol-2-yl)methanone] | 15
Cc1cc(OC2CN(C(=O)c3nnc(-c4ccccc4)o3)C2)ccc1CN1CC2(CCCO2)C1 [Example 11, (3-(4-(5-oxa-2-azaspiro[3.4]octan-2-ylmethyl)-3-methylphenoxy)azetidin-1-yl)(5-phenyl-1,3,4-oxadiazol-2-yl)methanone] | 15
COc1ccc(-c2nnc(C(=O)N3CC(Oc4ccc(CN5CCCC56CCOC6)cc4)C3)o2)cc1 (centres unmarked) [Example 14, (3-(4-(7-oxa-1-azaspiro[4.4]nonan-1-ylmethyl)phenoxy)azetidin-1-yl)(5-(4-methoxyphenyl)-1,3,4-oxadiazol-2-yl)methanone] | 23
COc1cc(OC2CN(C(=O)c3nnc(-c4ccccc4)o3)C2)ccc1CN1CCCC12COC2 [Example 16, (3-(4-(2-oxa-5-azaspiro[3.4]octan-5-ylmethyl)-3-methoxyphenoxy)azetidin-1-yl)(5-phenyl-1,3,4-oxadiazol-2-yl)methanone] | 34
COc1cc(CN2CCCC23COC3)ccc1OC1CN(C(=O)c2nnc(-c3ccccc3)o2)C1 [Example 17, (3-(4-(2-oxa-5-azaspiro[3.4]octan-5-ylmethyl)-2-methoxyphenoxy)azetidin-1-yl)(5-phenyl-1,3,4-oxadiazol-2-yl)methanone] | 420
COc1cc(CN2CCCC23COC3)ccc1OC1CN(C(=O)c2nnc(-c3ccc(C(F)F)cc3)o2)C1 [Example 18, (3-(4-(2-oxa-5-azaspiro[3.4]octan-5-ylmethyl)-2-methoxyphenoxy)azetidin-1-yl)(5-(4-(difluoromethyl)phenyl)-1,3,4-oxadiazol-2-yl)methanone] | 150
COc1cc(OC2CN(C(=O)c3nnc(-c4ccc(C(F)F)cc4)o3)C2)ccc1CN1CCCC12COC2 [Example 19, (3-(4-(2-oxa-5-azaspiro[3.4]octan-5-ylmethyl)-3-methoxyphenoxy)azetidin-1-yl)(5-(4-(difluoromethyl)phenyl)-1,3,4-oxadiazol-2-yl)methanone] | 38

Further lines, results first:

IC50 [nM] | SMILES
19 | O=C(c1nnc(-c2ccccc2)o1)N1CC(Oc2ccc(CN3CCC4(CCOC4)C3)cc2)C1 (centres unmarked) [Example 6, (3-(4-(2-oxa-7-azaspiro[4.4]nonan-7-ylmethyl)phenoxy)azetidin-1-yl)(5-phenyl-1,3,4-oxadiazol-2-yl)methanone]
18 | Cc1cc(OC2CN(C(=O)c3nnc(-c4ccccc4)o3)C2)ccc1CN1CCC2(CCOC2)C1 (centres unmarked) [Example 10, (3-(4-(2-oxa-7-azaspiro[4.4]nonan-7-ylmethyl)-3-methylphenoxy)azetidin-1-yl)(5-phenyl-1,3,4-oxadiazol-2-yl)methanone]
70 | O=C(c1nnc(-c2ccccc2)o1)N1CC(Oc2ccc(CN3CCCC34COC4)cc2)C1 [Example 13, (3-(4-(2-oxa-5-azaspiro[3.4]octan-5-ylmethyl)phenoxy)azetidin-1-yl)(5-phenyl-1,3,4-oxadiazol-2-yl)methanone]
58 | O=C(c1nnc(-c2ccccc2)o1)N1CC(Oc2ccc(CN3CCCC34CCOC4)cc2)C1 (centres unmarked) [Example 15, (3-(4-(7-oxa-1-azaspiro[4.4]nonan-1-ylmethyl)phenoxy)azetidin-1-yl)(5-phenyl-1,3,4-oxadiazol-2-yl)methanone]
23 | O=C(c1nnc(-c2ccccc2)o1)N1CC(Oc2ccc(CN3CCC4(CCCO4)C3)cc2)C1 (centres unmarked) [Example 22, (3-(4-(1-Oxa-7-azaspiro[4.4]nonan-7-ylmethyl)phenoxy)azetidin-1-yl)(5-phenyl-1,3,4-oxadiazol-2-yl)methanone]

system: human hepatocytes; assay: Estimation of covalent binding of small molecules to proteins in hepatocytes (fCVB); assay type: in vitro ADME; conditions: binding of 3H- or 14C-labelled compound to cryopreserved human hepatocytes
Method: Estimation of Covalent Binding of Small Molecules to Proteins in Hepatocytes:
The assay is based on the modification of a published method (Day, S. H.; Mao, A.; White, R.; Schulz-Utermoehl, T.; Miller, R.; Beconi, M. G. (2005) A semi-automated method for measuring the potential for protein covalent binding in drug discovery. J. Pharmacol. Toxicol. Methods 52, 278-285.). Briefly, cryopreserved human hepatocytes are incubated in the presence of radiolabeled drug candidate in 24-well plates for a pre-determined period to allow sufficient turnover of the parent compound. Following the incubation period, samples are taken out and quenched by cold acetone in order to facilitate precipitation of proteins. […] After solubilization of proteins collected on filter papers, radioactive content and amount of protein is determined to give an estimate of pmol equivalent drug molecule bound per mg protein. In addition to assessing the extent of covalent binding, the turnover of the parent drug is quantified to give an estimate of fraction of metabolites leading to covalent binding (fCVB).
One aspect of the metabolic profile is the formation of reactive metabolites, where compounds of this invention in general are less prone to form such reactive metabolites. […] An fCVB value can then be calculated.

SMILES | fCVB value (fraction of metabolites leading to covalent binding)
COc1ccc(-c2nnc(C(=O)N3CC(Oc4ccc(CN5CC6(CCOC6)C5)cc4)C3)o2)cc1 [Example 5, (3-(4-(6-oxa-2-azaspiro[3.4]octan-2-ylmethyl)phenoxy)azetidin-1-yl)(5-(4-methoxyphenyl)-1,3,4-oxadiazol-2-yl)methanone] | 0.0069
